# Test results from a melting point compilation (Tetko et al.; mined from patent text by program, amines drawn as free bases though some values may be those of a salt).
row,melting point [°C],SMILES
1,143 to 144,O=C(OCC1OC(n2ccc(=O)[nH]c2=O)C(OC(=O)c2ccccc2)C1OC(=O)c1ccccc1)c1ccccc1 (stereo not given)
2,147 to 149,O=C1NCCc2c(-c3cccc(Cl)c3)[nH]c3cccc1c23
3,154 to 156,O=C(O)C1=Cc2cc(Cl)cc(C#CCCCCl)c2OC1C(F)(F)F (stereo not given)
4,79 to 81,CCCCOC(=O)Cc1nc(-c2ccc(Cl)cc2)oc1-c1ccsc1
5,182 to 185,NNc1ccc(-c2nnn(Cc3ccccc3)n2)cc1
6,79 to 82,CCOc1ccc(C(c2ccc(C(C)(C)C)cc2)C(C)[N+](=O)[O-])cc1 (stereo not given)
7,208 to 210,Nc1ccn(C2CC(O)C(CO)O2)c(=O)n1 (stereo not given)
8,265 to 300,Cc1[nH]c(=O)c(C(F)(F)C(F)(F)F)c2c1CC(c1ccncc1)CC2 (stereo not given)
9,120 to 122,Clc1ccc2c(C=Cc3ccccc3)ccnc2c1
10,155 to 156,CCSc1cc(C)nc(SCC)c1NC(=O)CCCCSc1nc2cccc(C(F)(F)F)c2o1
11,> 250,c1ccc(-c2ccc3[nH]c4c(ccc5cc[nH]c54)c3c2)cc1
12,172 to 175,Cc1cc(C(=O)N[C@@H]2CCc3cccc(N4CCN(C)CC4)c3C2)ccc1N1CCOCC1
13,203 to 205,CCOCc1nc2c(N)nc3c(c2n1CCCCCS(N)(=O)=O)CCCC3
14,50 to 53.5,C=C(c1ccc(NC(=O)OC(C)(C)C)c(C)c1)C(F)(F)C(F)(F)C(F)(F)F
15,184 to 185,CC(=O)OCC1OC(n2cc(Cc3ccc4occc4c3)c3c(F)cccc32)C(OC(C)=O)C(OC(C)=O)C1OC(C)=O (stereo not given)
16,204 to 207,O=C1N(Cc2ccc(C(F)(F)F)nc2)c2ccccc2C12COc1cc3c(cc12)OCCO3 (stereo not given)
17,138 to 140,CC(C)(c1ccc(Oc2cccc(N)c2)cc1)c1ccc(C(C)(C)c2ccc(Oc3cccc(N)c3)cc2)cc1
18,108 to 109,CCS(=O)(=O)Nc1ccc(Cc2ccc(N)cc2)cc1
19,54 to 57,CSc1cc(Oc2cccc(C(F)(F)F)c2)nc(C(=O)O)c1
20,166 to 168,N#CCS(=O)(=O)c1ccc([N+](=O)[O-])cc1
21,262,CN1CCN(C(=O)C(c2ccc(Cl)cc2)c2c(Cl)cc(-n3ncc(=O)[nH]c3=O)cc2Cl)CC1 (stereo not given)
22,255 to 256,CC(C)OC(=O)C1=C(c2cccc([N+](=O)[O-])c2)N2C(=O)N(C)NC2=NC1C (stereo not given)

row,melting point [°C],SMILES
1,149 to 151,CC(C)(C)OC(=O)Nc1ccc(OC2CN(C(c3ccccc3)c3ccccc3)C2)cc1
2,144 to 146,COc1cccc([C@H]2O[C@H](CC(=O)Nc3ccc(CCC(=O)O)cc3)C(=O)N(CC(C)(C)COC(C)=O)c3ccc(Cl)cc32)c1OC
3,166 to 167,CCCN1C=CSC1S(=O)(=O)N=NC(=O)Nc1nc(OC)cc(OC)n1 (stereo not given)
4,158 to 160,Nc1nc2c(s1)CCN(CC1=Cc3ccccc3CC1)CC2
5,194,Cc1cc2cc(CN3CCC(CCCC(=O)N(C)C)CC3)cnc2cc1NC(=O)c1ccc(-c2ccc(F)cc2)cc1
6,218 to 219,COc1ccc(C#Cc2cc(Cl)cc3c2OC(CC(F)(F)F)C(C(=O)O)=C3)cc1 (stereo not given)
7,124 to 126,Clc1ccc(-c2cccs2)cn1
8,211 to 213,CC(=O)Nn1c(=O)c(=O)[nH]c2ccccc21
9,161 to 162,CC(C)(C)c1ccc(NC(=N)Nc2ccc(C(C)(C)C)cc2)cc1
10,216 to 218,O=C(/C=C/c1cccs1)Nc1ccc(-n2nc(C(F)(F)F)cc2C(F)(F)F)cc1
11,> 300,Cc1c(C)c(C(=O)O)c(C)c(C)c1C(=O)O
12,260,O=C(NC(=O)c1ccc(C(F)(F)F)cc1)Nc1ccc(Cl)cc1
13,133,COc1ccc(S(=O)(=O)N(CC(N)=O)c2ccc(Cl)cc2Cc2ccccc2C(F)(F)F)cc1OC
14,153 to 154,COc1ccc(Oc2cccnc2)cc1C#CC(C)N(O)C(N)=O (stereo not given)
15,112 to 113,CCOC(=O)Cn1c(-c2ccc(OC)c(OC)c2)cc(=Nc2c(C)cc(C)cc2C)n(C)c1=O
16,89 to 92,COC(=O)Cn1c(C(=O)Nc2nc(-c3cc(OC)ccc3OC)c(CC3CCCCC3)s2)cc2cc(C)cc(C)c21
17,186 to 187,Nc1ccc(S(=O)(=O)c2ccnc(N3CCCC3)c2)cc1
18,112 to 115,ClC[Si](c1ccccc1)(c1ccccc1)c1ccccc1
19,149 to 150,COc1cc(C#N)cc2cc(CO)oc12
20,84 to 86,CSc1ccc(COC(=O)OCc2ccc([N+](=O)[O-])cc2)cc1
21,138 to 139,Cc1oc(-c2ccccc2)nc1CCOc1ccc(C[C@@H](C(=O)O)N2CCN(c3cccc(Cl)c3)CC2)cc1
22,93 to 95,OC(CCC1CCN(Cc2ccccc2)CC1)c1ccc(N2CCCC2)cc1 (stereo not given)

row,melting point [°C],SMILES
1,241 to 242,Cn1cc(S(C)(=O)=O)c(=O)c2ccc(Cl)cc21
2,168 to 170,Nc1ccccc1NC(=O)c1ccc(CCC(=O)NCc2cccnc2)cc1
3,139 to 141,O=c1c(-c2ccccc2)ccc2n1CCSc1ccsc1-2
4,158,CC(C)NCC(=O)Nc1ccc2c(c1)C(=O)c1cc(NC(=O)CNC(C)C)ccc1C2=O
5,138 to 139,NC(=O)c1ccccc1NCc1ccc(Cl)cc1
6,258,Oc1noc2ncccc12
7,96 to 98,N#CC(C#N)=C1N(CCCCN2CCCCC2)CCN1CCCCN1CCCCC1
8,184 to 187,CNCCOc1ccc(C2=C(c3ccccc3)CCCc3cc(O)ccc32)cc1
9,177 to 179,Cc1ccc(CC2CCN(CCS(=O)c3ccc4[nH]c(=O)oc4c3)CC2)cc1 (stereo not given)
10,58 to 60,CC(C)n1c(Cl)nc2ccccc21
11,85 to 95,CCCC=Cc1c(C(C)C)cc(C(C)C)c(CO)c1-c1ccc(F)cc1
12,53.5 to 54.5,CCCCCCCCCCCCCCCCC(O)CBr (stereo not given)
13,206 to 209,Cc1nc2c(N)cc(Br)cc2n1C
14,169 to 170,O=c1c(CCCCc2ccncc2)cc2cccnc2n1-c1cccc([N+](=O)[O-])c1
15,108,CCOc1ccc(C(=O)C=Cc2ccc(SC)cc2)cc1
16,225 to 226,CC(=O)Nc1nc(CCc2ccc(CON3C(=O)c4ccccc4C3=O)cc2)cs1
17,146 to 148,CCCCCCCCCCCCC(C)(C)NC(=O)Nc1ccccc1C(=O)NC1CCN(C(c2ccccc2)c2ccccc2)CC1
18,111,COc1ccc(C=CC(=O)c2c(O)cc(OC)cc2OC)cc1
19,98 to 99,S=C(SCc1ccccc1)N1CC2CCC(CC2)C1
20,188 to 189,COC(=O)c1ccccc1-c1ncccc1N

row,SMILES,melting point [°C]
1,COP(=O)(OC)C(=O)Cc1ccccc1,117 to 122
2,CN(C)CCc1cccc(OCCNc2nc(N)nn2C)c1,72
3,COc1ccc(S(=O)(=O)Nc2cccnc2Nc2ccc(OC(=O)N(C)C)cc2)cc1,202 to 203
4,CC(=O)c1c(C#N)nn(-c2c(Cl)cc(C(F)(F)F)cc2Cl)c1N,200 to 201
5,CCC1(O)CC(=O)OCc2c1cc1n(c2=O)Cc2c-1nc1ccccc1c2-c1ccccc1 (stereo not given),> 250
6,CC1Sc2c(C(=O)O)c(=O)c3cc(F)c(N4CCNCC4)c(F)c3n21 (stereo not given),260
